ChEMBL document CHEMBL1201862, “PubChem BioAssay data set” (2004)
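Test compounds were applied to cells in 96-well plates for 48 hours at 5 doses. GI50: concentration for 50% inhibition of growth.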 The source made the active and inactive calls. Rule as the data show it: active = GI50 up to about 1.1 µM and inactive = higher.

Assays:
Test in all cases: NCI tumour cell line growth inhibition, 48 h
[1] = tested on: BT-549
[2] = tested on: HCT-116
[3] = tested on: SF-268
[4] = tested on: A498
[5] = tested on: HOP-92
[6] = tested on: K562
[7] = tested on: HCC 2998
[8] = tested on: NCI-H23
[9] = tested on: MDA-MB-435
[10] = tested on: SN12C
[11] = tested on: 786-0
[12] = tested on: DU-145
[13] = tested on: HCT-15
[14] = tested on: OVCAR-3
[15] = tested on: SF-295
[16] = tested on: U-251
[17] = tested on: NCI-H522
[18] = tested on: ACHN
[19] = tested on: Malme-3M
[20] = tested on: MCF7
[21] = tested on: SK-MEL-2
[22] = tested on: HL-60
[23] = tested on: PC-3
[24] = tested on: UO-31
[25] = tested on: NCI/ADR-RES
[26] = tested on: NCI-H460
[27] = tested on: SNB-75
[28] = tested on: HOP-62
[29] = tested on: TK-10
[30] = tested on: IGROV-1
[31] = tested on: OVCAR-8
[32] = tested on: UACC-257
[33] = tested on: COLO 205
[34] = tested on: MDA-N
[35] = tested on: SK-OV-3
[36] = tested on: A549
[37] = tested on: NCI-H226
[38] = tested on: M14
[39] = tested on: KM12
[40] = tested on: MOLT-4
[41] = tested on: OVCAR-5
[42] = tested on: SNB-19
[43] = tested on: EKVX
[44] = tested on: SK-MEL-5
[45] = tested on: RXF 393
[46] = tested on: SF-539
[47] = tested on: LOX IMVI
[48] = tested on: T47D
[49] = tested on: RPMI-8226
[50] = tested on: CCRF-CEM
[51] = tested on: UACC-62
[52] = tested on: HT-29
[53] = tested on: SK-MEL-28
[54] = tested on: SW-620
[55] = tested on: OVCAR-4
[56] = tested on: CAKI-1
[57] = tested on: Hs-578T
[58] = tested on: MDA-MB-231
[59] = tested on: SR

Measured: GI50

c1ccc(/N=C2/SC(c3ccccc3)(c3ccccc3)c3ccccc32)cc1
> 100 µM: [13]
inactive: [1] > 100 µM | [2] 64.3 µM | [3] > 100 µM | [4] > 100 µM | [5] > 100 µM | [6] > 100 µM | [7] > 100 µM | [8] > 100 µM | [9] > 100 µM | [10] > 100 µM | [11] > 100 µM | [12] > 100 µM | [14] > 100 µM | [15] > 100 µM | [16] 10.4 µM | [17] > 100 µM | [18] > 100 µM | [19] > 100 µM | [20] 87.7 µM | [21] > 100 µM | [22] > 100 µM | [23] > 100 µM | [24] > 100 µM | [25] > 100 µM | [26] > 100 µM | [27] > 100 µM | [28] > 100 µM | [29] > 100 µM | [30] > 100 µM | [31] > 100 µM | [32] > 100 µM | [33] > 100 µM | [34] > 100 µM | [35] > 100 µM | [36] > 100 µM | [37] > 100 µM | [38] > 100 µM | [39] > 100 µM | [40] > 100 µM | [41] > 100 µM | [42] > 100 µM | [43] > 100 µM | [44] 57.8 µM | [45] > 100 µM | [46] > 100 µM | [47] 71.6 µM | [48] > 100 µM | [49] > 100 µM | [50] > 100 µM | [51] > 100 µM | [52] > 100 µM | [53] > 100 µM | [54] > 100 µM | [55] > 100 µM | [56] > 100 µM | [57] > 100 µM | [58] > 100 µM

COc1cc(/C=N/c2ccc(Oc3ccc(Cl)cc3)c(Cl)c2)cc(OC)c1OC
19.5 µM: [13]
inactive: [1] 15.9 µM | [2] 13.8 µM | [3] 12.4 µM | [5] 19.1 µM | [7] 19.3 µM | [8] 20.2 µM | [9] 28.2 µM | [59] 26.9 µM | [10] 20.9 µM | [11] 13.6 µM | [12] 11.7 µM | [14] 20 µM | [15] 18.2 µM | [16] 18.2 µM | [17] 12.3 µM | [18] 29.1 µM | [19] 15.5 µM | [20] 29.6 µM | [21] 17.8 µM | [22] 15 µM | [23] 14.3 µM | [24] 11 µM | [25] 22.9 µM | [26] 19.3 µM | [27] 23.7 µM | [28] 23.8 µM | [29] 32.9 µM | [30] 21.8 µM | [31] 25.8 µM | [32] 20.7 µM | [33] 17.2 µM | [34] 22.6 µM | [35] > 10 µM | [36] 18.5 µM | [37] 26.6 µM | [38] 23.3 µM | [39] 21.3 µM | [40] 24.9 µM | [41] 34.7 µM | [42] 21.8 µM | [43] 21.1 µM | [44] 17.7 µM | [46] 16.4 µM | [47] 16.2 µM | [48] 3.53 µM | [49] 18.9 µM | [50] 12.4 µM | [51] 15.3 µM | [52] 22.2 µM | [53] 21.3 µM | [54] 34.2 µM | [55] 19.4 µM | [56] 22.9 µM | [57] 15.8 µM | [58] 16.8 µM
